Measured values reported in patent US9440982B2 (Eolas Therapeutics, Inc., priority 2012, dated 2016).

target: T1, OX1 (Homo sapiens, UniProt O43613); test: Orexin receptor cell-based functional assay, [Ca2+]i by FLIPR, CHO-OX1 cells; conditions: CHO-OX1 cells, [Ca2+]i by FLIPR, antagonist dose-range 0.1 nM-10 μM, EC90 of OXA; read-out: OX1
T1 construct: expressed in transfected cells; host or cells: CHO (CHO-OX1, kept under selection antibiotic)
T1 sequence (O43613 1-425): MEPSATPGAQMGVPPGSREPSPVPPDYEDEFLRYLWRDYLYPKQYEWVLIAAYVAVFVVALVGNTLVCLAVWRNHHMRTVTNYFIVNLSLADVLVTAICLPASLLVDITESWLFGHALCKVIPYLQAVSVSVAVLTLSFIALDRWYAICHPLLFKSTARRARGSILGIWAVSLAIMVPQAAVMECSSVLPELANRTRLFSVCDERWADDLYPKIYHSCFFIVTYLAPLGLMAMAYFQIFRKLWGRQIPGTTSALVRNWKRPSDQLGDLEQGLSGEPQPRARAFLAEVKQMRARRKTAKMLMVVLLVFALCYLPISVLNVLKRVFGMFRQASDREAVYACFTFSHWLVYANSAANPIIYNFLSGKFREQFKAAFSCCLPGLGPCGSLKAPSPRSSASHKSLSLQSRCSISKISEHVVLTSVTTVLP
Description: Measurement of [Ca^2+]i using a FLIPR: CHO—OX1 or CHO—OX2 cells are seeded into black-walled clear-base 384-well plates (Costar) at a density of 20,000 cells per well in F12-K medium supplemented with 10% FBS and selection antibiotic (500 ug/ml G418 or 15 ug/ml Blasticidin) and cultured overnight. The cells are incubated with equal volume of calcium4 loading buffer (Molecular Devices, Inc.) containing 2.5 mM probenecid at 37° C. for 30 min, followed by putative OX1 or OX2 receptor antagonists (dose-range 0.1 nM-10 μM) for another 30 min.
The cells are incubated with equal volume of calcium6 loading buffer (Molecular Devices, Inc.) containing 2.5 mM probenecid at 37° C. for 2 h, followed by test compounds (dose-range 0.1 nM-10 μM) for another 30 min.

Which IC50 does the source give for `C[C@@H]1CCCN(C(=O)c2nccc3ccccc23)[C@@H]1CNc1ncc(Cl)cn1` [Example A225, ((2S,3R)-2-(((5-Chloropyrimidin-2-yl)amino)methyl)-3-methylpiperidin-1-yl)(isoquinolin-1-yl)methanone] here?
Its IC50 is 340 nM.

For `Cc1nc(C(=O)N2CCCC3CN(c4nc5ccc(Cl)cc5o4)CC32)c(-c2ccc(F)cc2)s1` (stereo not drawn) [Example A76, (6-(6-Chlorobenzo[d]oxazol-2-yl)octahydro-1H-pyrrolo[3,4-b]pyridin-1-yl)(5-(4-fluorophenyl)-2-methylthiazol-4-yl)methanone], which IC50 is on record?
Its IC50 is over 1000 nM.

`Cc1nc(C(=O)N2CCC[C@H](C)[C@H]2CNc2ccc(C(F)(F)F)cn2)c(-c2ccc(F)cc2)s1` (racemic) [Example A65, rac-trans-(5-(4-Fluorophenyl)-2-methylthiazol-4-yl)(3-methyl-2-(((5-(trifluoromethyl)pyridin-2-yl)amino)methyl)piperidin-1-yl)methanone] was tested. Which IC50 did it give?
The IC50 was 7 nM.

`Cc1ccc(-c2cnn(C)c2)c(C(=O)N2CCC[C@@H](C)[C@H]2CNc2ccc(F)cn2)c1` [Example A44, ((2S,3R)-2-(((5-Fluoropyridin-2-yl)-amino)methyl)-3-methylpiperidin-1-yl)(5-methyl-2-(1-methyl-1H-pyrazol-4-yl)phenyl)methanone] was tested. Which IC50 did it give?
The IC50 was 11 nM.

For `Cc1ccc(-c2cnn(C)c2)c(C(=O)N2CC3CCCC3C2CNc2ccc(C(F)(F)F)cn2)c1` (stereo not drawn) [Example A71, (5-Methyl-2-(1-methyl-1H-pyrazol-4-yl)phenyl)(1-(((5-(trifluoromethyl)pyridin-2-yl)amino)methyl)hexahydrocyclopenta[c]pyrrol-2(1H)-yl)methanone], which IC50 is on record?
Its IC50 is 70 nM.

same assay, conditions: Table 2; CHO-OX1 cells, EC90 of OXA; read-out: IC50 Bioactivity OX1

How did the IC50 turn out when `Cc1nc(-c2ccccc2)c(C(=O)N2C(C)CCCC2CNC(=O)c2cccc3cccnc23)s1` (racemic) [Example 29, rac-N-((6-Methyl-1-(2-methyl-4-phenylthiazole-5-carbonyl)piperidin-2-yl)methyl)quinoline-8-carboxamide] was run?
The IC50 was 200 nM.

Which IC50 does the source give for `Cc1nc(C(=O)N2CCC[C@@H](C)[C@H]2CNc2ccc(C(F)(F)F)cn2)c(-c2ccccc2)s1` (racemic) [Example 73, rac-cis-(3-Methyl-2-(((5-(trifluoromethyl)pyridin-2-yl)amino)methyl)piperidin-1-yl)(2-methyl-5-phenylthiazol-4-yl)methanone] here?
Its IC50 is under 10 nM.

For `Cc1nc(C(=O)N2CCC[C@@H](C)[C@H]2CNc2cccc(C(F)(F)F)n2)c(-c2ccc(F)cc2)s1` (racemic) [Example 87, rac-cis-(3-Methyl-2-(((6-(trifluoromethyl)pyridin-2-yl)amino)methyl)piperidin-1-yl) (5-(4-fluorophenyl)-2-methylthiazol-4-yl)methanone], which IC50 is on record?
The IC50 was 220 nM.

For `Cc1ccc(-c2ncco2)c(C(=O)N2CCC[C@@H](C)[C@H]2CNc2ccc(C(F)(F)F)cn2)c1` (racemic) [Example 113, rac-cis-(3-Methyl-2-(((5-(trifluoromethyl)pyridin-2-yl)amino)methyl)piperidin-1-yl)(5-methyl-2-(oxazol-2-yl)phenyl)methanone], which IC50 is on record?
The IC50 was 25 nM.

How did the IC50 turn out when `O=C(NCC1CCC(NCc2ccccc2)CN1C(=O)c1ccccc1-c1ccccc1)c1cccc2cccnc12` (racemic) [Example 40, N-((5-(Benzylamino)-1-(biphenylcarbonyl)piperidin-2-yl)methyl)quinoline-8-carboxamide] was run?
Its IC50 is 600 nM.

With `COc1cnc(NC[C@@H]2[C@H](C)CCCN2C(=O)c2nc(C)sc2-c2ccc(F)cc2)nc1` (racemic) [Example 88, rac-cis-(2-(((5-Methoxypyrimidin-2-yl)amino)methyl)-3-methylpiperidin-1-yl) (5-(4-fluorophenyl)-2-methylthiazol-4-yl)methanone] as the molecule, how does the IC50 read?
The IC50 was 42 nM.

`COC1CCC(CNC(=O)c2cccc3cccnc23)N(C(=O)c2nc(C)sc2-c2cccc(F)c2)C1` (racemic) [Example 50, N-((1-(5-(3-Fluorophenyl)-2-methylthiazole-4-carbonyl)-5-methoxypiperidin-2-yl)methyl)quinoline-8-carboxamide] was tested. Which IC50 did it give?
Its IC50 is 7 nM.

With `Cc1ccc(-n2ccnc2)c(C(=O)N2CCC[C@@H](C)[C@H]2CNc2ccc(C(F)(F)F)cn2)c1` (racemic) [Example 116, rac-cis-(2-(1H-Imidazol-1-yl)-5-methylphenyl)(3-methyl-2-(((5-(trifluoromethyl)pyridin-2-yl)amino)methyl)piperidin-1-yl)methanone] as the molecule, how does the IC50 read?
Its IC50 is under 100 nM.

With `Cc1ccc(-c2cncnc2)c(C(=O)N2CCC[C@@H](C)[C@H]2CNc2ccc(C(F)(F)F)cn2)c1` (racemic) [Example 107, rac-cis-(3-Methyl-2-(((5-(trifluoromethyl)pyridin-2-yl)amino)methyl)piperidin-1-yl) (5-methyl-2-(pyrimidin-5-yl)phenyl)methanone] as the molecule, how does the IC50 read?
Its IC50 is 78 nM.

With `Cc1nc(C(=O)N2CCC[C@@H](C)[C@H]2CNc2ccc(Cl)cn2)c(-c2ccc(F)cc2)s1` (racemic) [Example 18, rac-cis-(2-(((5-Chloropyridin-2-yl)amino)methyl)-3-methylpiperidin-1-yl)(5-(4-fluorophenyl)-2-methylthiazol-4-yl)methanone] as the molecule, how does the IC50 read?
Its IC50 is 16 nM.

Which IC50 does the source give for `Cc1nc(C(=O)N2CC3CCCCC3C2CNC(=O)c2cccc3occc23)c(-c2ccccc2)s1` (single isomer, unassigned) [Example 70] here?
Its IC50 is 170 nM.

How did the IC50 turn out when `CNC1CCC(CNC(=O)c2cccc3cccnc23)N(C(=O)c2ccccc2-c2ccccc2)C1` (racemic) [Example 49, N-((1-(Biphenylcarbonyl)-5-(methylamino)piperidin-2-yl)methyl)quinoline-8-carboxamide] was run?
The IC50 was 25 nM.

Which IC50 does the source give for `CO[C@@H]1CCCN(C(=O)c2nc(C)sc2-c2ccc(F)cc2)[C@@H]1CNc1nc2ccccc2s1` (racemic) [Example 94, rac-cis-(2-((Benzo[d]thiazol-2-ylamino)methyl)-3-methoxypiperidin-1-yl)(5-(4-fluorophenyl)-2-methylthiazol-4-yl)methanone] here?
Its IC50 is 76 nM.

How did the IC50 turn out when `Cc1ccc(NC[C@@H]2[C@H](C)CCCN2C(=O)c2nc(C)sc2-c2ccc(F)cc2)nc1` (racemic) [Example 86, rac-cis-(3-Methyl-2-(((5-methylpyridin-2-yl)amino)methyl)piperidin-1-yl)(5-(4-fluorophenyl)-2-methylthiazol-4-yl)methanone] was run?
Its IC50 is 22 nM.

For `Cc1nc(-c2ccccc2)c(C(=O)N2C(C)CCCC2CCOc2ccccc2)s1` (racemic) [Example 30, rac-(2-Methyl-4-phenylthiazol-5-yl)(2-methyl-6-(2-phenoxyethyl)piperidin-1-yl)methanone], which IC50 is on record?
The IC50 was 220 nM.

`O=C(NC[C@@H]1C[C@H](F)CN1C(=O)c1ccccc1-c1ccccc1)c1cccc2cccnc12` [Example 5, N-(((2S,4S)-1-(Biphenylcarbonyl)-4-fluoropyrrolidin-2-yl)methyl)quinoline-8-carboxamide] was tested. Which IC50 did it give?
Its IC50 is 6 nM.

For `Cc1ccc(-c2cnn(CCN3CCOCC3)c2)c(C(=O)N2CCC[C@@H](C)[C@H]2CNc2ccc(C(F)(F)F)cn2)c1` (racemic) [Example 111, rac-cis-(3-Methyl-2-(((5-(trifluoromethyl)pyridin-2-yl)amino)methyl)piperidin-1-yl)(5-methyl-2-(1-(2-morpholinoethyl)-1H-pyrazol-4-yl)phenyl)methanone], which IC50 is on record?
Its IC50 is over 1000 nM.

Which IC50 does the source give for `Cc1nc(C(=O)N2CCC[C@@H](C)[C@H]2CNc2cc(C(F)(F)F)ccn2)c(-c2ccc(F)cc2)s1` (racemic) [Example 21, rac-cis-(5-(4-Fluorophenyl)-2-methylthiazol-4-yl)(3-methyl-2-(((4-(trifluoromethyl)pyridin-2-yl)amino)methyl)piperidin-1-yl)methanone] here?
The IC50 was 24 nM.

For `Cc1nc(-c2ccccc2)c(C(=O)N2CC[C@@H](O)C[C@H]2CNC(=O)c2cccc3cccnc23)s1` [Example 134, N-(((2S,4R)-4-Hydroxy-1-(2-methyl-4-phenylthiazole-5-carbonyl)piperidin-2-yl)methyl)quinoline-8-carboxamide], which IC50 is on record?
The IC50 was 5 nM.

How did the IC50 turn out when `Cc1ccc(-c2ccc(N3CCN(C)CC3)nc2)c(C(=O)N2CCC[C@@H](C)[C@H]2CNc2ccc(C(F)(F)F)cn2)c1` (racemic) [Example 110, rac-cis-(3-Methyl-2-(((5-(trifluoromethyl)pyridin-2-yl)amino)methyl)piperidin-1-yl)(5-methyl-2-(6-(4-methylpiperazin-1-yl)pyridin-3-yl)phenyl)methanone] was run?
Its IC50 is over 1000 nM.

`Cc1cnc(NC[C@@H]2[C@H](C)CCCN2C(=O)c2nc(C)sc2-c2ccc(F)cc2)nc1` (racemic) [Example 83, rac-cis-(3-Methyl-2-(((5-methylpyrimidin-2-yl)amino)methyl)piperidin-1-yl)(5-(4-fluorophenyl)-2-methylthiazol-4-yl)methanone] was tested. Which IC50 did it give?
The IC50 was 30 nM.

How did the IC50 turn out when `O=C1C[C@@H](CNC(=O)c2cccc3cccnc23)N(C(=O)c2ccccc2-c2ccccc2)C1` [Example 6, (S)—N-((1-(Biphenylcarbonyl)-4-oxopyrrolidin-2-yl)methyl)quinoline-8-carboxamide] was run?
Its IC50 is 30 nM.
